Source: patent US20050256093A1, “Branched polyamine steroid derivatives” (Leo Pharma, priority 2002, published 2005)
Converted amounts (≈) assume the structure as drawn.

Columns and labels:
Assay type in all cases: cell-based
S. pyogenes = experiment: Minimum Bactericidal Concentration (MBC), broth culture and colony count; details: streptococci, TH broth, anaerobic; concentration twice that of MIC; FIG. 2
Description: (§1) 10^6 bacteria were inoculated in 3 ml growth media (S. aureus—LB broth, S. pyogenes—TH broth) containing approximately 2×MIC, 1×MIC, 0.5×MIC and O×MIC respectively of compound 102 (MIC being relative to the strain being tested). S. aureus strains were grown aerobically, and S. pyogenes anaerobically in a carbon dioxide enriched incubator. Samples were diluted and plated on LA-plates (S. aureus) or blood-agar plates (S. pyogenes) followed by 24 hours incubation at 37° C. before being scored for colonies.

S. aureus = experiment: as above; details: staphylococci, LB broth, aerobic; concentration twice that of MIC; FIG. 1
Description: as §1

[1] = test system: Streptococcus pyogenes EC88; experiment: agar cup assay MIC; details: agar with 5% sheep blood
Excerpt: (§2) In vitro investigations have shown a significant potency of the compounds of the invention against a large number of bacteria including gram-positive and gram-negative strains (Staphyiococci, Streptococci, Corynebacteriae, Mycobacteriae, Proteus, Propionibacterium, Pseudomonas, Neisseriae, E. coli) and fungal strains (Candida and Aspergillus). […] In addition, the studies of post-antibiotic effects point towards a strong bactericidal effect of the compounds of the invention. […] Minimum Inhibitory Concentrations were estimated using an agar cup assay. Bacterial strains were obtained from the American Type Culture Collection or from our own collection of clinical isolates. Colonies from fresh overnight culture were resuspended in saline water to 0.5 MacFarland corresponding to 10^8 CFU/ml. 200 ml Mueller Hinton agar (Oxoid) at 48° C. was inoculated at a concentration of 10^6 CFU/ml and poured into square petri dishes (245×245 mm). Holes were made in the inoculated plates and 200 μl of the compounds to be tested were disposed into each hole. A dilution series of compounds contained six dilution between 0.25 and 125 μg/ml. For Streptococci Mueller Hinton agar was supplemented with 5% sheep blood. Plates were appropriately incubated and zone diameters of growth inhibition were measured using an electronic caliper. MICs were estimated using a linear regression curve between the zone diameter of growth inhibition and the log2 of the sample concentration. The microbiological assay set up is in agreement with the European Pharmacopoeia 3rd edition (1997). The inhibition zones are function of the concentration of the compounds used. Known antibiotics including fusidic acid (FA), mupirocin and linezolid were used as reference compounds.

S. aureus CJ200 = experiment: agar cup assay MIC; details: Staphylococcus aureus
Excerpt: as §2

S. aureus N6 = experiment: agar cup assay MIC; details: Staphylococcus aureus; S. aureus N6 (Fus. resistant)
Excerpt: as §2

S. aureus CJ247 = experiment: agar cup assay MIC; details: Staphylococcus aureus
Excerpt: as §2

[2] = test system: Pseudomonas aeruginosa BA17; experiment: agar cup assay MIC
Excerpt: as §2

S. epidermis CK5 = experiment: agar cup assay MIC; details: Staphylococcus epidermidis
Excerpt: as §2

[3] = test system: Saccaromyces cervisiae ZZ7; experiment: agar cup assay MIC; details: Saccharomyces cerevisiae
Excerpt: as §2

[4] = test system: Propionibacterium acnes FN33; experiment: agar cup assay MIC; details: Cutibacterium acnes
Excerpt: as §2

S. aureus CJ234F = experiment: agar cup assay MIC; details: Staphylococcus aureus; S. aureus CJ234F (MRSA, Fus. resistant)
Excerpt: as §2

[5] = test system: Corynebacterium xerosis FF; experiment: agar cup assay MIC
Excerpt: as §2

E. coli HA165 = experiment: agar cup assay MIC; details: Escherichia coli
Excerpt: as §2

Asbergillus niger ZM35 = experiment: agar cup assay MIC; details: Aspergillus niger
Excerpt: as §2

[6] = test system: Streptococcus faecium EI19; experiment: agar cup assay MIC; details: Enterococcus faecium; Streptococcus faecium EI19 (Penicillin resistant); agar with 5% sheep blood
Excerpt: as §2

Candida albicans ZA = experiment: agar cup assay MIC
Excerpt: as §2

S. aureus CJ234R = experiment: agar cup assay MIC; details: Staphylococcus aureus; S. aureus CJ234R (MRSA, Rifampicin resistant)
Excerpt: as §2

SMILES	bactericidal impact (MBC) (S. pyogenes)	bactericidal impact (MBC) (S. aureus)	MIC [1] [µg/mL]	MIC (S. aureus CJ200) [µg/mL]	MIC (S. aureus N6) [µg/mL]	MIC (S. aureus CJ247) [µg/mL]	MIC [2] [µg/mL]	MIC (S. epidermis CK5) [µg/mL]	MIC [3] [µg/mL]	MIC [4] [µg/mL]	MIC (S. aureus CJ234F) [µg/mL]	MIC [5] [µg/mL]	MIC (E. coli HA165) [µg/mL]	MIC (Asbergillus niger ZM35) [µg/mL]	MIC [6] [µg/mL]	MIC (Candida albicans ZA) [µg/mL]	MIC (S. aureus CJ234R) [µg/mL]
CC(=O)O[C@H]1C[C@@]2(C)C(CCC3[C@@]4(C)CC[C@@H](O)[C@@H](C)C4CC[C@@]32C)[C@@H]1[C@H](CCCC(C)C)C(=O)NCCN(CCN)CCN (stereo partly drawn) [Compound 102, 21-N-{2′-[bis(2′-aminoethyl)amino]ethyl}-11-desoxy-17R,20S,24,25-tetrahydrofusid-21-amide]	strong bacterial killing	strong bacterial killing	16 (≈ 25.3 µM)	4 (≈ 6.32 µM)	4 (≈ 6.32 µM)	4 (≈ 6.32 µM)	16 (≈ 25.3 µM)	4 (≈ 6.32 µM)	16 (≈ 25.3 µM)	4 (≈ 6.32 µM)	4 (≈ 6.32 µM)	4 (≈ 6.32 µM)	16 (≈ 25.3 µM)	4 (≈ 6.32 µM)	16 (≈ 25.3 µM)	4 (≈ 6.32 µM)	4 (≈ 6.32 µM)
C[C@H](CCC(=O)NCCN(CCN)CCN)[C@H]1CC[C@H]2[C@@H]3CC[C@@H]4C[C@H](O)CC[C@]4(C)[C@H]3[C@H](O)C[C@]12C [Compound 107]			16 (≈ 30.7 µM)	16 (≈ 30.7 µM)	16 (≈ 30.7 µM)	16 (≈ 30.7 µM)	16 (≈ 30.7 µM)	16 (≈ 30.7 µM)	4 (≈ 7.68 µM)	16 (≈ 30.7 µM)	16 (≈ 30.7 µM)	16 (≈ 30.7 µM)	16 (≈ 30.7 µM)	16 (≈ 30.7 µM)	16 (≈ 30.7 µM)	16 (≈ 30.7 µM)	16 (≈ 30.7 µM)
